Consider five compounds from paper PMC4676410 (Journal of medicinal chemistry, 2015).

The test system of one assay is HIV-1ADA. In words: CD4-dependent CCR5-tropic HIV-1 cell-cell transmission assay. Format: cell-based. Conditions: Ghost X4/R5 and MOLT-4/HIV-1ADA.
Assay [1] deals with HIV-1ADA (CCR5-tropic) pseudovirus. In words: Single-cycle infection assay in U87-CD4-CCR5 cells.
The test system of assay [2] is YU2 core gp120. Put plainly: Competitive SPR: VRC-PG04 binding to immobilized YU2 core gp120. More on the design: species or system HIV-1. Conditions: at higher ratios of NBD-11021 versus VRC-PG04.
A further assay concerns HIV-2 isolates. Put plainly: Antiviral activity against HIV-2. Conditions: Table S2. Format: cell-based.
Another assay deals with VSV-G. Put plainly: microbe, parasite or virus in culture. Format: cell-based. The note with it: Human immunodeficiency virus 1.
In the next assay the test system is SHIVSF162P3. In words: Antiviral activity against SHIV. Format: cell-based. Conditions: Table S2.
The next assay deals with HIV-1IIIB. Put plainly: CD4-dependent CXCR4-tropic HIV-1 cell-cell transmission assay. The format is cell-based. Conditions: Ghost X4/R5 and H9/HIV-1IIIB.
Assay [3] concerns fusion between MAGI-CCR5 and HL 2/3 cells. In words: HIV-1 cell-cell fusion assay. The format is cell-based. Conditions: read-out: IC50, cell-cell fusion assay.
The subject of a further assay is SIVmac186. In words: Antiviral activity against SIV. Format: cell-based. The note with it: Table S2.
Assay [4] has as its system YU2 core gp120. In words: Competitive SPR: sCD4 binding to immobilized YU2 core gp120. Conditions: NBD-11021 12.5-200 μM. More on the design: species or system HIV-1.
The subject of assay [5] is lab-adapted and primary HIV-1 isolates. In words: microbe, parasite or virus in culture. Format: cell-based. Conditions: Human immunodeficiency virus 1, PBMC, laboratory strain BaL, subtype B, R5.
The subject of assay [6] is laboratory-adapted HIV-1 strains. In words: microbe, parasite or virus in culture. Format: cell-based.
For assay [7], the system named is YU2 core gp120. In words: SPR: binding of YU2 core gp120 to captured mAb 17b in presence of compounds. On the set-up: species or system HIV-1. The note with it: sCD4 15-fold excess, compounds 50-fold excess. In general terms: In SPR one partner is held on a chip, and binding of the other changes the refractive index at the surface.
In assay [8] the test system is HIV-1HXB2 (CXCR4-tropic) pseudovirus. In words: Single-cycle infection assay in U87-CD4-CXCR4 cells. Conditions: U87-CD4-CXCR4, HIV-1HXB2.
The next assay deals with A-MLV. Put plainly: microbe, parasite or virus in culture. Format: cell-based. The note with it: Murine leukemia virus.
The target in assay [9] is HIV-1 reverse transcriptase (RT) (Human immunodeficiency virus type 1 group M subtype B, UniProt P12497). Put plainly: HIV-1 reverse transcriptase.
A further assay has as its system HIV-1 Env pseudoviruses. The format is cell-based. The note with it: TZM-bl, HIV-1HXB2.
The mark [10] stands for this setting: Human immunodeficiency virus 1, MT2, MT-2, HIV-1IIIB.

Where two headings read alike, the source gives them in different places.

What is called IC50 is the concentration at which inhibition is half-maximal. On to `Cc1nc(C(NC(=O)c2ccc(-c3ccc(Cl)cc3)[nH]2)C2CCCCN2)sc1CO` (mixture of isomers) [NBD-11021, 5-(4-Chlorophenyl)-N-((5-(hydroxymethyl)-4-methylthiazol-2-yl)-(piperidin-2-yl)methyl)-1H-pyrrole-2-carboxamide], for which the “inhibition of CCR5-tropic cell-cell transmission (in words)” value in the assay on HIV-1ADA was “showed inhibition”. Besides, the IC50 in assay [1] (Pseudovirus, U87/CD4/CCR5, U87-CD4-CCR5, HIV-1ADA) is 1700 ± 200 nM; in assay [1] (U87/CD4/CCR5, read-out: IC50 against CCR5- and CXCR4-tropic HIV-1) it was 1700 to 2400 nM; in the assay with VSV-G, 10000 ± 500 nM; in assay [3], 9800 nM; in assay [5], 3700 ± 400 nM; in assay [6] (setting [10]), 1500 ± 60 nM. Further, the IC50 in [6] (Human immunodeficiency virus 1, MT2, laboratory strain RF, subtype B, MT-2, R5X4) is 7300 ± 600 nM; in assay [8], 2400 ± 100 nM; in the assay with A-MLV, 7500 ± 200 nM. Moreover, the “competition with VRC-PG04 for binding to gp120 (in words)” value in the assay on YU2 core gp120 [2] is on record as “effectively competed with VRC-PG04”. Besides, the “activity against HIV-2 isolates (in words)” value with HIV-2 isolates is “poor activity”. The “activity against SHIVSF162P3 (in words)” value in the assay with SHIVSF162P3 is reported as “poor activity”. For the same compound, in the assay on HIV-1IIIB, the “inhibition of CXCR4-tropic cell-cell transmission (in words)” value is recorded as “inhibited cell–cell transmission effectively”. For the same compound, the “activity against SIVmac186 (in words)” value in the assay with SIVmac186 is “poor activity”. Also, in the assay on YU2 core gp120 [4], the “competition with sCD4 for binding to gp120 (in words)” value is “competes with CD4 to bind to gp120 in a dose-dependent manner”. Moreover, the “enhancement of mAb 17b binding to YU2 core gp120 (in words)” value in the assay on YU2 core gp120 [7] is “no enhancement”.

`Cc1cn([C@H]2C[C@H](N=[N+]=[N-])[C@@H](CO[P@](=O)(O)O[P@](=O)(O)OP(=O)(O)O)O2)c(=O)[nH]c1=O` [AZT-TP]: the IC50 in [9] was found to be 8 nM.

Turning to `COc1ccnc2[nH]cc(C(=O)C(=O)N3CCN(C(=O)c4ccccc4)C[C@H]3C)c12` [BMS-378806], the half-maximal inhibitory concentration (IC50) in assay [3] (MAGI-CCR5 and HL 2/3 cells) worked out at 14 nM.

Take `Cc1nc(C(NC(=O)c2ccc(-c3ccc(Cl)cc3)[nH]2)C2CCCCN2)sc1CO` (centres unmarked) [NBD-11021A, 5-(4-Chlorophenyl)-N-((5-(hydroxymethyl)-4-methylthiazol-2-yl)-(piperidin-2-yl)methyl)-1H-pyrrole-2-carboxamide]: the IC50 was 1300 ± 200 nM in [6] (MT-2, HIV-1IIIB) and 3000 ± 400 nM in assay [8].

As to `Cc1nc(C(NC(=O)c2ccc(-c3ccc(Cl)cc3)[nH]2)C2CCCCN2)sc1CO` (centres unmarked) [NBD-11021B, 5-(4-Chlorophenyl)-N-((5-(hydroxymethyl)-4-methylthiazol-2-yl)-(piperidin-2-yl)methyl)-1H-pyrrole-2-carboxamide], the values for the IC50 (in the assay on HIV-1 Env pseudoviruses; in assay [6] (setting [10])) were 2400 ± 100 nM and 1800 ± 50 nM, respectively.
